Reference: US9340577B2, “HLA binding motifs and peptides and their uses” (priority 1992, dated 2016)
Values joined by “and” are separate entries in the source; they are usually repeats but may differ in a detail not shown here. Equal values may be shown once. No end group written: not given here.

What was measured:
A2.1 HLA molecules = A2.1 HLA molecules (Homo sapiens, UniProt P04439, D140Y/D185E/D98H/E176V/E277Q/G131W/G231S/I119V/I121R/I166T/I218V/L300P/L318F/N151K/N90K/P208A/P217A/Q86G/Q94H/R138H/R169H/T345S); assay type: binding; set-up: A*0201 / A2.1 Binding / A2 Bind. / A2 / A2.1 (binding capacity): scale not given here
HLA-A*0201 (HLA-A2.1) = HLA-A*0201 (HLA-A2.1) (Homo sapiens, UniProt P04439, D140Y/D185E/D98H/E176V/E277Q/G131W/G231S/I119V/I121R/I166T/I218V/L300P/L318F/N151K/N90K/P208A/P217A/Q86G/Q94H/R138H/R169H/T345S); experiment: biochemical; assay type: binding
HLA-A24 = assay type: binding, human
A*2601 = A*2601 (Homo sapiens, UniProt P04439, A114D/A173T/A270S/D101N/D185E/E277Q/E87N/F33Y/G231S/I121R/I218V/K168Q/L180W/L300P/L318F/P208A/P217A/Q86R/Q94H/R138Q/S129P/T187R/T323A/T345S/V100A/V358M); experiment: biochemical; assay type: binding
A*2902 = A*2902 (Homo sapiens, UniProt P04439, A270S/D101N/D185E/E176V/E277Q/E87Q/F33T/G231S/H175R/I121M/I218V/I322F/K168Q/L300P/L318F/M331R/P208A/P217A/Q86L/T323A/T345S/V100A/V358M); experiment: biochemical; assay type: binding
HLA-A1 (A*0101) = HLA-A1 (A*0101) (Homo sapiens, UniProt P04439, A114D/A174V/A182V/D101N/D185E/E176A/E190D/L180R/Q94H/R68K/S129P/T187R/V100A/V91M/W191G); experiment: biochemical; assay type: binding

Sequence | binding to HLA-A2.1 (column 3; no allele head shown for these rows) (HLA-A*0201 (HLA-A2.1)) | binding to HLA-A24 (column 6; no allele head shown for these rows) (HLA-A24) | further results
ALAETSYVKV | 0.017 | 0 | A2 (A2.1 HLA molecules): 0.0150; A2 Bind. (A2.1 HLA molecules): 0.0150
ALREEEEGV | 0.0056 | 0 | A2 Bind. (A2.1 HLA molecules): 0.0210
ATCVSHRGLY [Peptide 1580.22] | – | – | IC50 (A*2601): 492 nM; IC50 (A*2902): 4210 nM
CILESLFRA | 0.073 | 0 | A2 Bind. (A2.1 HLA molecules): 0.0460
CTDKILEHY [Peptide 1593.14] | – | – | IC50 (HLA-A1 (A*0101)): 110 nM; IC50 (A*2601): > 20000 nM; IC50 (A*2902): > 20000 nM
DSVQILVGY [Peptide 86.0147] | – | – | IC50 (HLA-A1 (A*0101)): 1930 nM; IC50 (A*2601): 2.8 nM
EMLESVIKN | – | – | A2.1 (HLA-A*0201 (HLA-A2.1)): <0.0002; A24 (HLA-A24): 0
ETDEEITGYLY [Peptide 9012.0180] | – | – | IC50 (HLA-A1 (A*0101)): 6.4 nM; IC50 (A*2601): 27 nM; IC50 (A*2902): 277 nM
ETSYVKVLEY | 0 | 0 | –
FLIIVLVMIAM | 0.0041 and 0.0031 | 0.0011 | –
FLLLKYRA | 0.0007 | 0 | –
FLWGPRALA | 0.042 and 0.027 | 0 | A2 (A2.1 HLA molecules): 0.0420; A2 Bind. (A2.1 HLA molecules): 0.0420
GASAFPTTI | 0 | <0.0002 | –
GASSFSTTI | 0 | 0.0002 | –
GASSLPTTM | 0 | 0.0010 | –
GLLGDNQIM | 0.0054 | 0.0002 | A2.1 (HLA-A*0201 (HLA-A2.1)): 0.0051
GLVCVQAA | 0.0008 | 0 | –
GLVCVQAAT | 0.0007 | 0.0001 | –
ILESLFRA | 0.0017 | 0.0011 | –
ILLWQPIPV | 1.4 | 0 | –
IMPKTGFLI | 0.0035 | 3.2 | –
IMPKTGFLII | 0.0007 | 0.050 | –
ISDYRHYCY [Peptide 1571.26] | – | – | IC50 (HLA-A1 (A*0101)): 9.4 nM; IC50 (A*2601): > 20000 nM; IC50 (A*2902): 9.9 nM
IVEGQVDYY [Peptide 1580.29] | – | – | IC50 (HLA-A1 (A*0101)): 188 nM; IC50 (A*2601): > 20000 nM; IC50 (A*2902): > 20000 nM
KAEMLESVI | 0 | <0.0002 | –
KAEMLESVL | 0 | 0 | –
KMVELVHFL | 0.13 | 0.0043 | A2 Bind. (A2.1 HLA molecules): 0.1600; A2.1 (HLA-A*0201 (HLA-A2.1)): 0.16

Sequence | binding to HLA-A2.1 (column 3; no allele head shown for these rows) (HLA-A*0201 (HLA-A2.1)) | binding to HLA-A24 (column 6; no allele head shown for these rows) (HLA-A24) | further results
KMVELVHFLL | 0.071 | 0.0008 | A2 (A2.1 HLA molecules): 0.2200; A2 Bind. (A2.1 HLA molecules): 0.1100
KVADLVGFL | 0.0091 | 0 | –
KVADLVGFLL | 0.041 | 0.0070 | A2 Bind. (A2.1 HLA molecules): 0.0560
KVAELVHFL | 0.073 | 0.0005 | –
KVLEYVIKV | 0.095 | 0 | A2 Bind. (A2.1 HLA molecules): 0.0900
LAETSYVKVL | 0 | <0.0002 | –
LTDKILDHY [Peptide 1593.16] | – | – | IC50 (HLA-A1 (A*0101)): 3.1 nM; IC50 (A*2601): 804 nM; IC50 (A*2902): 4420 nM
LVLGTLEEV | 0.032 | 0.0003 | A2 (A2.1 HLA molecules): 0.0320; A2 Bind. (A2.1 HLA molecules): 0.0320; A2.1 relative binding (ratio of binding of test peptide relative to standard peptide) (A2.1 HLA molecules): 0.032
MLESVIKNYK | 0 | 0 | –
QAATSSSSPL | 0 | <0.0002 | –
QIMPKTGFLII | 0.0003 | 0.0030 | –
QTEPDTSNY [Peptide 1549.44] | – | – | IC50 (A*2601): 4980 nM; IC50 (A*2902): > 20000 nM
RALAETSYV | 0.014 | 0 | A2 (A2.1 HLA molecules): 0.0100; A2 Bind. (A2.1 HLA molecules): 0.0100
SAYGEPRKL | 0.0002 | <0.0002 | –
SAYGEPRKLL | 0 | 0.0008 | –
SLQLVFGI | 0.0094 | 0 | –
SLQLVFGIDV | 0.0047 | 0.0001 | –
VADLVGFLL | 0.0011 | 0.0007 | –
VADLVGFLLL | 0.0008 | 0.0003 | –
VAELVHFLL | 0 | 0.039 | –
VIPHAMSSCGV | 1.4 | 0 | –
VLGTLEEV | 0.0088 | 0 | –
VLVTCLGL | 0.0010 | 0 | –
VMIAMEGGHA | 0.0023 | 0 | A2 Bind. (A2.1 HLA molecules): 0.0360
YLEYGRCRTV | 0.0097 | 0 | –
YVIKVSARV | 0.018 | 0 | A2 Bind. (A2.1 HLA molecules): 0.0140
